Square brackets hold non-standard residues; d marks the D form. Peptide text beside a SMILES is read from it. Sar = CNCC(=O)O
Key:
[1] = test system: complement activation in factor B-depleted human sera; format: biochemical
Procedure: Peptides were diluted to 0.77 mM in factor B-depleted human sera (Complement Technologies, Inc.) and incubated for 1 hour at 37° C. These peptides were then diluted with GVBS^++ to equal 2.5/s serum, of which 0.25 ml was combined with 0.4 ml of GVBS^++ and 0.1 ml of sensitized sheep red blood cells (RBCs) and again incubated for 1 hour at 37° C. The procedure was stopped by the addition of 4.0 ml of GVBS^−−, centrifuged for 5 minutes at 1,620×g, and the absorbance of the supernatants was read at 412 nm in a spectrophotometer. The percent lysis of each sample was standardized to that of the serum only control.
The final concentration of peptide in factor B-depleted serum was 0.77 mM. Each peptide was evaluated in triplicate and the mean values are reported. […] In the hemolytic assay, soluble peptides are standardized to water and insoluble peptides standardized to DMSO.
Polar Assortant peptides were serially diluted in undiluted factor B-depleted human sera (Complement Technologies, Inc.) and incubated for 1 hour at 37° C. Water, GVBS^++ and DMSO were included as controls. These peptides were then diluted with GVBS^++ to equal 2.5/s serum, of which 0.25 ml was combined with 0.4 ml of GVBS^++ and 0.1 ml of sensitized sheep red blood cells (RBCs) and again incubated for 1 hour at 37° C. The procedure was stopped by the addition of 4.0 ml of GVBS^−−, centrifuged for 5 minutes at 1,620×g, and the absorbance of the supernatants was read at 412 nm in a spectrophotometer. The percent lysis of each sample was standardized to that of the serum only control.
The final concentration of peptide in factor B-depleted serum was 0.77 mM. […] In the hemolytic assay, soluble peptides were standardized to water and insoluble peptides standardized to DMSO.
The final concentration of peptide in factor B-depleted serum was 0.77 mM. […] In the hemolytic assay, soluble peptides are standardized to water and insoluble peptides standardized to DMSO.

Solubility in water = format: physicochemical; conditions: Table 7, PEGylated and sarcosine/alanine substitution peptides

Row | Compound | Hemolysis (%) [1] | Solubility in water (Solubility in water)
1 | CC[C@H](C)[C@H](N)C(=O)N[C@@H](C)C(=O)N[C@@H](CC(C)C)C(=O)N[C@H](C(=O)N[C@@H](CC(C)C)C(=O)N[C@@H](CCC(=O)O)C(=O)N1CCC[C@H]1C(=O)N[C@H](C(=O)N(C)CC(=O)N[C@@H](CS)C(=O)N[C@@H](CCC(N)=O)C(=O)N[C@@H](CCC(=O)O)C(=O)N[C@@H](CCCNC(=N)N)C(=O)N(C)CC(=O)N[C@@H](C)C(=O)O)[C@@H](C)CC)[C@@H](C)CC [Peptide A14SarC9Sar] (H-IALILEPI[Sar]CQER[Sar]A-OH) | 14.73% | No
2 | CC[C@H](C)[C@H](N)C(=O)N[C@@H](C)C(=O)N[C@@H](CC(C)C)C(=O)N[C@H](C(=O)N[C@@H](CC(C)C)C(=O)N[C@@H](CCC(=O)O)C(=O)N(C)CC(=O)N[C@H](C(=O)N[C@@H](CS)C(=O)N[C@@H](CS)C(=O)N[C@@H](CCC(N)=O)C(=O)N[C@@H](CCC(=O)O)C(=O)N[C@@H](CCCNC(=N)N)C(=O)N(C)CC(=O)N[C@@H](C)C(=O)O)[C@@H](C)CC)[C@@H](C)CC [Peptide A14SarP7Sar, IALILE(Sar)ICCQER(Sar)A] (H-IALILE[Sar]ICCQER[Sar]A-OH; N-terminus and C-terminus assumed) | 4.37% | Yes
3 | CC[C@H](C)[C@H](N)C(=O)N[C@@H](C)C(=O)N[C@@H](CC(C)C)C(=O)N[C@H](C(=O)N[C@@H](CC(C)C)C(=O)N[C@@H](C)C(=O)N1CCC[C@H]1C(=O)N[C@H](C(=O)N(C)CC(=O)N[C@@H](CS)C(=O)N[C@@H](CCC(N)=O)C(=O)N[C@@H](C)C(=O)N[C@@H](CCCNC(=N)N)C(=O)N[C@@H](C)C(=O)N[C@@H](C)C(=O)O)[C@@H](C)CC)[C@@H](C)CC [Peptide E6AE12AC9Sar] (H-IALILAPI[Sar]CQARAA-OH) | 2.99% | No
4 | CC[C@H](C)[C@H](N)C(=O)N[C@@H](C)C(=O)N[C@@H](CC(C)C)C(=O)N[C@H](C(=O)N[C@@H](CC(C)C)C(=O)N[C@@H](C)C(=O)N(C)CC(=O)N[C@H](C(=O)N[C@@H](CS)C(=O)N[C@@H](CS)C(=O)N[C@@H](CCC(N)=O)C(=O)N[C@@H](C)C(=O)N[C@@H](CCCNC(=N)N)C(=O)N[C@@H](C)C(=O)N[C@@H](C)C(=O)O)[C@@H](C)CC)[C@@H](C)CC [Peptide E6AE12AP7Sar] (H-IALILA[Sar]ICCQARAA-OH; N-terminus and C-terminus assumed) | 4.60% | Yes
5 | CC[C@H](C)[C@H](N)C(=O)N[C@@H](C)C(=O)N[C@@H](CC(C)C)C(=O)N[C@H](C(=O)N[C@@H](CC(C)C)C(=O)N(C)CC(=O)N1CCC[C@H]1C(=O)N[C@H](C(=O)N(C)CC(=O)N[C@@H](CS)C(=O)N[C@@H](CCC(N)=O)C(=O)N[C@@H](CCC(=O)O)C(=O)N[C@@H](CCCNC(=N)N)C(=O)N[C@@H](C)C(=O)N[C@@H](C)C(=O)O)[C@@H](C)CC)[C@@H](C)CC [Peptide E6SarC9Sar, IALIL(Sar)PI(Sar)CQERAA] (H-IALIL[Sar]PI[Sar]CQERAA-OH) | 6.21% | Yes
6 | CC[C@H](C)[C@H](N)C(=O)N[C@@H](C)C(=O)N[C@@H](CC(C)C)C(=O)N[C@H](C(=O)N[C@@H](CC(C)C)C(=O)N(C)CC(=O)N(C)CC(=O)N[C@H](C(=O)N[C@@H](CS)C(=O)N[C@@H](CS)C(=O)N[C@@H](CCC(N)=O)C(=O)N[C@@H](CCC(=O)O)C(=O)N[C@@H](CCCNC(=N)N)C(=O)N[C@@H](C)C(=O)N[C@@H](C)C(=O)O)[C@@H](C)CC)[C@@H](C)CC [Peptide E6SarP7Sar] (H-IALIL[Sar][Sar]ICCQERAA-OH; N-terminus and C-terminus assumed) | 3.57% | Yes
